Measured values reported in patent US20160051533A1, “DIAGNOSIS AND PHARMACOLOGICAL TREATMENT OF SEASONAL AFFECTIVE DISORDER AND SYMPTOMS OF SEASONALITY” (Ladd Research LLC, priority 2014, published 2016).
Entries after “also recorded” stand apart in the source; their conditions may differ.

Experiments:
Wistar female rats [1] = assay: Symptoms noticed after administration; type: in vivo, rat; conditions: also seen with 20% DMSO vehicle; stated to be induced by DMSO
Description: No other symptom was noticed.

OxR2 = target: T1, OxR2 (Homo sapiens, UniProt O43614); conditions: read-out: Human OxR2 FLIPR; cited from earlier work
T1 sequence (O43614 1-444): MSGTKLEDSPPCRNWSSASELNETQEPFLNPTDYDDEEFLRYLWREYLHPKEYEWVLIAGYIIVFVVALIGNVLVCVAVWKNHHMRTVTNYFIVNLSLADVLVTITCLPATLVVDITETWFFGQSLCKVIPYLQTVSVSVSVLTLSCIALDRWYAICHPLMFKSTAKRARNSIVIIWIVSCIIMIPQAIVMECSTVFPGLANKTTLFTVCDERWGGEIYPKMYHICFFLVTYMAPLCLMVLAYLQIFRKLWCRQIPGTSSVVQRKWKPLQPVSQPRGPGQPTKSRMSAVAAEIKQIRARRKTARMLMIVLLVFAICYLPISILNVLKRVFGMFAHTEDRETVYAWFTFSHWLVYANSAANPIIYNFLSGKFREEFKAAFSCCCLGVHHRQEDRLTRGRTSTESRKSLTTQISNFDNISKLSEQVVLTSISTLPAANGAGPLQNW

P-gp = P-gp (Homo sapiens, UniProt P08183); conditions: cited from earlier work
[2] = Bergman et al. 2008; cited from earlier work
[3] = 100 mpk ip 30 min; cited from earlier work
Wistar female rats [4] = assay: Open-field test (OFT) in rats under shifted photoperiods
Description: Activity was tested in open boxes (open-fields: 100 cm wide, 100 cm long, 50 cm high) made of PVC. Animals' activity was recorded by an electronic videotracking detection system (Viewpoint, France) allowing to detect the distance travelled and the time spent in different parts of the open-field.
Light intensity was 7-10 Lux at the center of the open-fields.
Animals were individually placed for a 10-min session in the center of one quadrant of the open-field.
Parameters analyzed were: • 1) One parameter taken as an index of locomotor-exploratory behavior: • The distance travelled in the open-field. • 2) Two parameters taken as indices of anxiety behavior: • a) % Dist Cent=the percentage of distance travelled in the central 60×60 cm area of the open-field. • b) % Time cent=the percentage of time spent in the central 60×60 cm area of the open-field.
(§1) A difference was considered: • 1) Statistically significant: p≦0.05. • 2) Close-to-significant difference: 0.05<p≦0.10. • 3) Not significant: p>0.10.

[5] = Body weight / growth rate in rats under shifted photoperiods; conditions: for growth rate: SL-TCS vs SL-Veh, IP (FIGS. 25, 27); for Body weight in percent of initial body weight (d−4): short light (SL) rats, mean
Description: Rats were weighed three times a week in order to examine the effect of L/D changes and the effects of treatments on the body weight.
Animals' body weight was recorded three days per week. The body weight on day d-4 was considered as the initial body weight.
Initial body weight (BW) between recorded on day d-4, before the initiation of L/D change analyzed by 1-factor ANOVA and Student's t-test.
Therefore, the following analyses were performed on the BW expressed in percentage of the initial BW. • 2) Effect of L/D condition:
The BW expressed in percentage of the initial BW was compared between by ANOVA for repeated measures (from day dl to day d54): • a) On C-Veh, LL-Veh and SL-Veh groups: overall effect. • b) On C-Veh and LL-Veh groups: effect of LL. • c) On C-Veh and SL-Veh groups: effect of SL. • d) On LL-Veh and SL-Veh groups: difference LL vs. SL. • 3) Effect of vehicle:

Wistar female rats [6] = assay: Forced swimming test (FST) in rats under shifted photoperiods; conditions: TCS 1102 20 mg/kg IP
Description: Animals of CL and LL groups received the vehicles in the same conditions.
The same animals were tested by the same experimenter on the two FST sessions. The same proportion of animals of each group was tested by each experimenter.
The apparatus used for the experiment consisted of glass cylinders (64 cm high, 25 cm diameter) filled with 30 cm 25° C. water. The experiment was recorded with a camcorder, placed in front of the glass cylinder and connected to a screen, allowing the experimenter to watch the test online.
Light intensity was 15-20 Lux at the level of glass cylinders.
The behavior of the rat was measured on the second trial.
Behavior was classified as one of three behaviors: • 1) Immobility, defined as floating in the water without struggling and using only small movements to keep the head above water. • 2) Swimming, defined as moving limbs in an active manner, more than required to keep the head above water and causing movement among quadrants of the cylinder. • 3) Climbing, defined as making active movements with forepaws moving in and out of the water, usually directed against the side of the cylinder. Parameters analyzed were:
1) Imo=the immobility time.
2) Swm=the swimming time.
3) Clb=the climbing time.
A depressive-like profile is indicated by an increase of the immobility time and a decrease of either the swimming time or the climbing time. Conversely, an antidepressant-like effect is indicated by a decrease of the immobility time and an increase of either the swimming time or the climbing time.
as §1

Wistar female rats [7] = assay: Elevated-plus maze (EPM) test in rats under shifted photoperiods; conditions: EPM
Description: Animals were subjected to the elevated-plus maze (EPM) test only once during the period of the study: at the 43th, 44th or 45th days of treatment (see Table 2).
The apparatus consisted of a plus-shaped maze, elevated 50 cm from the floor, with two opposite open arms, 50×10 cm, crossed at right angles by two arms of the same dimensions, but enclosed by 40-cm-high black opaque walls with an open roof. In addition a 1-cm-high edge made of Plexiglas surrounded the open arms to avoid falls.
Light intensity was 10 Lux at the level of open arms.
The experiment was recorded with a camcorder, placed 1.5 m above the maze and connected to a screen, allowing the experimenter to watch the test online.
Animals were individually placed for a 5-min session in the center of the plus-maze. The number of arm entries and the time spent in arms were recorded. An arm entry is defined as all four paws into the arm.
Other parameters were recorded: the time spent in open arms, the number of open arm entries, the time spent in enclosed arms, the number of enclosed arm entries and the time spent in the center of the maze.
1) Enclosed arm entries: entries into the protected arms of the EPM
as §1

[8] = OFT first session, SL-TCS vs SL-DMSO, 20 mg/kg IP
[9] = OFT first session, Short Light rats, TCS 20 mg/kg IP daily, group mean
[10] = OFT first session, TCS 1102 20 mg/kg IP
[11] = OFT reanalysis, SL rats, IP TCS 1102
[12] = SL-TCS vs SL-DMSO, 20 mg/kg IP, 20 mg/kg
[13] = short light (SL) rats, group mean, DMSO vehicle comparison groups

Chain of P-gp (P08183 whole entry): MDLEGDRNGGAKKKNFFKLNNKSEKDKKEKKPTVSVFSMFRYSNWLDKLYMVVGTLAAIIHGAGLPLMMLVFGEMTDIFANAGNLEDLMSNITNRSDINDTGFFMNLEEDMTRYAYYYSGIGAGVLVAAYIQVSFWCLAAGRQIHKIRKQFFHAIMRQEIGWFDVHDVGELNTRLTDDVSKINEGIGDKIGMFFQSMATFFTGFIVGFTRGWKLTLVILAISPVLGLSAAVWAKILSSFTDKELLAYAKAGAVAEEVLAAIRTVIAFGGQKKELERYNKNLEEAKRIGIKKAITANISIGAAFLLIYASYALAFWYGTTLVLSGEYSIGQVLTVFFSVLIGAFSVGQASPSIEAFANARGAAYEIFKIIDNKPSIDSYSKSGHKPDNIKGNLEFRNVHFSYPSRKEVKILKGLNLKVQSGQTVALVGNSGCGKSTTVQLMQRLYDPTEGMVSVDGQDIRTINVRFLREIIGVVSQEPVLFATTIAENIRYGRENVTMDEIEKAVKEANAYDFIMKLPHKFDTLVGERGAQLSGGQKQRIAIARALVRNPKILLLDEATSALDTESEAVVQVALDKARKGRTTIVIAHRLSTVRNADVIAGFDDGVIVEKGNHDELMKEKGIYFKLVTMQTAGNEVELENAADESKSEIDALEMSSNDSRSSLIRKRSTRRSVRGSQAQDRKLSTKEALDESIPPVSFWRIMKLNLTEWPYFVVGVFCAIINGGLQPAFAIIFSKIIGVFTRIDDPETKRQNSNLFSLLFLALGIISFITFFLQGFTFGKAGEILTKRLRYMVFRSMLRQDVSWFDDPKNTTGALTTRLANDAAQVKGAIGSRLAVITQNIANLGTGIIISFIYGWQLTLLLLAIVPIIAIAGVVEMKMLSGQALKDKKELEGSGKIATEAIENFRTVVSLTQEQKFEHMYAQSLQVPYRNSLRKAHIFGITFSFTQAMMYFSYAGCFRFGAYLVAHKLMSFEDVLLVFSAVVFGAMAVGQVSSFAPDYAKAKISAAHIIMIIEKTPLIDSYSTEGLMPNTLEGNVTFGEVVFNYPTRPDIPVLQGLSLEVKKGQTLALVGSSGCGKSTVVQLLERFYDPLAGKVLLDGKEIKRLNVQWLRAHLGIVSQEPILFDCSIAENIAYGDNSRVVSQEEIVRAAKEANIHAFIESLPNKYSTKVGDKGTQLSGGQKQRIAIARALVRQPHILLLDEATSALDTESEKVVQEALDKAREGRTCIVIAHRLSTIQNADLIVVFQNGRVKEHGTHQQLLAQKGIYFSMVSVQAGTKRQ

symptoms after IP injection (Wistar female rats [1]): Abdominal contractions lasting 10-20 sec
SMILES: Cn1c(SCC(=O)N2CCC[C@H]2C(=O)Nc2ccccc2-c2ccccc2)nc2ccccc21 [TCS 1102]
IC50 (OxR2): 4 nM
P-gp (B to A/A to B) (P-gp): 1.4
rat in vivo half life [2]: around 0.3 hours
Brain level [3]: 2370 nM
CSF level [3]: 43 nM
plasma level [3]: 3.5 µM
effect on the % Time Center (Wistar female rats [4]; [8]): Tended to increase
effect on the Distance (Wistar female rats [4]; [8]): Did not significantly modify
effect on the % Dist Center (Wistar female rats [4]; OFT first session, SL-TCS vs SL-DMSO, 20 mg/kg IP, 20 mg/kg): reduced the decrease; also recorded: Increased
% Dist Cent (Wistar female rats [4]; [9]): 11.3%
% Time Cent (Wistar female rats [4]; [9]): 7.4%
Distance travelled (Wistar female rats [4]; [9]): 8505.8 cm
anxiogenic-like effect of short light duration (Wistar female rats [4]; [10]): reduced the anxiogenic-like effect of short light duration
motor exploratory activity (Wistar female rats [4]; [10]): did not modify
another parameter of exploratory behavior (FIGS. 5 and 6, hyper center) (Wistar female rats [4]; [11]): similarly treated
exploratory behaviors (FIG. 4) (Wistar female rats [4]; [11]): treated with statistical significance
thigmotactic anxiety-like behaviors (FIG. 3) (Wistar female rats [4]; [11]): treated fully and with statistical significance
growth rate [5]: consistently increased the growth rate
growth rate ([5]; listed as TCS): lessened the SL-induced low growth rate
body weight ([5]; TCS 1102 20 mg/kg IP, SL rats): no significant effect
Body weight in percent of initial body weight (d−4) ([5]; d29-t1, during treatment): 162.1%
Body weight in percent of initial body weight (d−4) ([5]; d31-t3, during treatment): 161.0%
Body weight in percent of initial body weight (d−4) ([5]; d33-t5, during treatment): 165.8%
Body weight in percent of initial body weight (d−4) ([5]; d36-t8, during treatment): 168.2%
Body weight in percent of initial body weight (d−4) ([5]; d38-t10, during treatment): 169.5%
Body weight in percent of initial body weight (d−4) ([5]; d40-t12, during treatment): 168.9%
Body weight in percent of initial body weight (d−4) ([5]; d43-t15, during treatment): 171.4%
Body weight in percent of initial body weight (d−4) ([5]; d45-t17, during treatment): 172.9%
Body weight in percent of initial body weight (d−4) ([5]; d47-t19, during treatment): 173.2%
Body weight in percent of initial body weight (d−4) ([5]; d50-t22, during treatment): 173.9%
Body weight in percent of initial body weight (d−4) ([5]; d52-t24, during treatment): 176.9%
Body weight in percent of initial body weight (d−4) ([5]; d54-t26, during treatment): 174.7%
depression-related behavior in the FST (Wistar female rats [6]): no significant effect
effect on the AE (Wistar female rats [7]; SL-TCS vs SL-DMSO, 20 mg/kg IP): Did not significantly modify
effect on the % OAE (Wistar female rats [7]; [12]): Tended to reduce the decrease; also recorded: Increased
effect on the % TOA (Wistar female rats [7]; [12]): Did not significantly reduce the decrease; also recorded: Did not significantly modify
anxiogenic-like effect of short light duration (Wistar female rats [7]; TCS 1102 20 mg/kg IP): tended to reduce
Number of arm entries (AE) (Wistar female rats [7]; [13]): 16.8
Percentage of open arm entries (% OAE) (Wistar female rats [7]; [13]): 32.0%
Percentage of time spent in open arms (% TOA) (Wistar female rats [7]; [13]): 23.1%
